What was measured:
Assay in all cases: relative viability (nuclei count vs DMSO), 5 days (fraction); higher = more cells survive
NCI-H1623 = test system: NCI-H1623
Outline: (§1)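 Cells from lung cancer lines were seeded into 1536-well plates and, one day later, dosed by pin tool. Treatments were either a single drug or a fixed dose of an anchor drug with five library-drug doses (not always all listed) in √10 steps. After 5 days, nuclei were stained in a one-step fixation (final 0.05% Triton X-100, 1% formaldehyde, 1 ug/ml Hoechst) and counted on 4× images, and relative viability is the treated-to-vehicle nuclei ratio, as the median of duplicate plates.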

NCI-H1355 = test system: NCI-H1355
Outline: as §1

LCLC-97TM1 = test system: LCLC-97TM1
Outline: as §1

NCI-H596 = test system: NCI-H596
Outline: as §1

NCI-H2342 = test system: NCI-H2342
Outline: as §1

NCI-H1437 = test system: NCI-H1437
Outline: as §1

EBC-1 = test system: EBC-1
Outline: as §1

IA-LM = test system: IA-LM
Outline: as §1

Calu-6 = test system: Calu-6
Outline: as §1

A549 = test system: A549
Outline: as §1

NCI-H1703 = test system: NCI-H1703
Outline: as §1

NCI-H1299 = test system: NCI-H1299
Outline: as §1

NCI-H1648 = test system: NCI-H1648
Outline: as §1

## Cc1csc(=NC2CCCCC2)n1/N=C/c1ccc(O)c(O)c1O [MIM1] + Cc1nc(Nc2ncc(C(=O)Nc3c(C)cccc3Cl)s2)cc(N2CCN(CCO)CC2)n1 [Dasatinib] (partner 0.075 µM)
NCI-H1623; first compound 0.2 µM
  relative viability: 0.594
NCI-H1623; first compound 0.6325 µM
  relative viability: 0.476
NCI-H1623; first compound 2 µM
  relative viability: 0.498
NCI-H1623; first compound 6.325 µM
  relative viability: 0.536
NCI-H1623; first compound 20 µM
  relative viability: 0.299
NCI-H1355; first compound 0.2 µM
  relative viability: 0.746
NCI-H1355; first compound 0.6325 µM
  relative viability: 0.682
NCI-H1355; first compound 2 µM
  relative viability: 0.698
NCI-H1355; first compound 6.325 µM
  relative viability: 0.655
NCI-H1355; first compound 20 µM
  relative viability: 0.391
LCLC-97TM1; first compound 0.2 µM
  relative viability: 0.866
LCLC-97TM1; first compound 0.6325 µM
  relative viability: 0.709
LCLC-97TM1; first compound 2 µM
  relative viability: 1.02
LCLC-97TM1; first compound 6.325 µM
  relative viability: 0.552
LCLC-97TM1; first compound 20 µM
  relative viability: 0.431
NCI-H596; first compound 0.2 µM
  relative viability: 0.646
NCI-H596; first compound 0.6325 µM
  relative viability: 0.651
NCI-H596; first compound 2 µM
  relative viability: 0.546
NCI-H596; first compound 6.325 µM
  relative viability: 0.61
NCI-H596; first compound 20 µM
  relative viability: 0.597
NCI-H2342; first compound 0.2 µM
  relative viability: 0.319
NCI-H2342; first compound 0.6325 µM
  relative viability: 0.316
NCI-H2342; first compound 2 µM
  relative viability: 0.331
NCI-H2342; first compound 6.325 µM
  relative viability: 0.299
NCI-H2342; first compound 20 µM
  relative viability: 0.418
NCI-H1437; first compound 0.2 µM
  relative viability: 0.456
NCI-H1437; first compound 0.6325 µM
  relative viability: 0.406
NCI-H1437; first compound 2 µM
  relative viability: 0.55
NCI-H1437; first compound 6.325 µM
  relative viability: 0.285
NCI-H1437; first compound 20 µM
  relative viability: 0.151

## CCNC(=O)c1noc(-c2cc(C(C)C)c(O)cc2O)c1-c1ccc(CN2CCOCC2)cc1 [Luminespib] + O=C(c1cc(Cc2n[nH]c(=O)c3ccccc23)ccc1F)N1CCN(C(=O)C2CC2)CC1 [Olaparib] (partner 8 µM)
EBC-1; first compound 0.002 µM
  relative viability: 0.794
EBC-1; first compound 0.006325 µM
  relative viability: 0.586
EBC-1; first compound 0.02 µM
  relative viability: 0.572
EBC-1; first compound 0.06325 µM
  relative viability: 0.122
EBC-1; first compound 0.2 µM
  relative viability: 0.124
IA-LM; first compound 0.002 µM
  relative viability: 0.919
IA-LM; first compound 0.006325 µM
  relative viability: 0.785
IA-LM; first compound 0.02 µM
  relative viability: 0.816
IA-LM; first compound 0.06325 µM
  relative viability: 0.0533
IA-LM; first compound 0.2 µM
  relative viability: 0.0667
Calu-6; first compound 0.002 µM
  relative viability: 0.652
Calu-6; first compound 0.006325 µM
  relative viability: 0.545
Calu-6; first compound 0.02 µM
  relative viability: 0.696
Calu-6; first compound 0.06325 µM
  relative viability: 0.111
Calu-6; first compound 0.2 µM
  relative viability: 0.098
NCI-H1355; first compound 0.002 µM
  relative viability: 0.757
NCI-H1355; first compound 0.006325 µM
  relative viability: 0.695
NCI-H1355; first compound 0.02 µM
  relative viability: 0.611
NCI-H1355; first compound 0.06325 µM
  relative viability: 0.188
NCI-H1355; first compound 0.2 µM
  relative viability: 0.149
A549; first compound 0.002 µM
  relative viability: 0.282
A549; first compound 0.006325 µM
  relative viability: 0.174
A549; first compound 0.02 µM
  relative viability: 0.194
A549; first compound 0.06325 µM
  relative viability: 0.0387
A549; first compound 0.2 µM
  relative viability: 0.0323
LCLC-97TM1; first compound 0.002 µM
  relative viability: 0.421
LCLC-97TM1; first compound 0.006325 µM
  relative viability: 0.5
LCLC-97TM1; first compound 0.06325 µM
  relative viability: 0.401
LCLC-97TM1; first compound 0.2 µM
  relative viability: 0.257
NCI-H1703; first compound 0.002 µM
  relative viability: 0.401
NCI-H1703; first compound 0.006325 µM
  relative viability: 0.358
NCI-H1703; first compound 0.02 µM
  relative viability: 0.651
NCI-H1703; first compound 0.06325 µM
  relative viability: 0.127
NCI-H1703; first compound 0.2 µM
  relative viability: 0.104
NCI-H596; first compound 0.002 µM
  relative viability: 0.752
NCI-H596; first compound 0.006325 µM
  relative viability: 0.695
NCI-H596; first compound 0.02 µM
  relative viability: 0.749
NCI-H596; first compound 0.06325 µM
  relative viability: 0.617
NCI-H596; first compound 0.2 µM
  relative viability: 0.602
NCI-H1299; first compound 0.002 µM
  relative viability: 0.954
NCI-H1299; first compound 0.006325 µM
  relative viability: 0.921
NCI-H1299; first compound 0.02 µM
  relative viability: 0.959
NCI-H1299; first compound 0.06325 µM
  relative viability: 0.467
NCI-H1299; first compound 0.2 µM
  relative viability: 0.147
NCI-H1648; first compound 0.002 µM
  relative viability: 0.765
NCI-H1648; first compound 0.006325 µM
  relative viability: 0.653
NCI-H1648; first compound 0.02 µM
  relative viability: 0.784
NCI-H1648; first compound 0.06325 µM
  relative viability: 0.505
NCI-H1648; first compound 0.2 µM
  relative viability: 0.484
NCI-H2342; first compound 0.002 µM
  relative viability: 0.411
NCI-H2342; first compound 0.006325 µM
  relative viability: 0.512
NCI-H2342; first compound 0.02 µM
  relative viability: 0.324
NCI-H2342; first compound 0.06325 µM
  relative viability: 0.348
NCI-H2342; first compound 0.2 µM
  relative viability: 0.238
NCI-H1437; first compound 0.002 µM
  relative viability: 0.806
NCI-H1437; first compound 0.006325 µM
  relative viability: 0.63
NCI-H1437; first compound 0.02 µM
  relative viability: 0.684
NCI-H1437; first compound 0.06325 µM
  relative viability: 0.259
NCI-H1437; first compound 0.2 µM
  relative viability: 0.211
